Results: US8178552B2, “7-Azaindole derivatives and their use in the inhibition of c-Jun N-terminal kinase” (Eisai R&D Management Co., Ltd., priority 2008, dated 2012)

Biological target: JNK3 (Homo sapiens, UniProt P53779)
Assay: JNK3 SPA assay
Assay type: biochemical
Conditions: 3.33 μM ATP, GST-c-Jun substrate; read-out: IC50 against JNK3
Protocol: JNK1, JNK2, JNK3—SPA Assay
JNK1, JNK2, JNK3—SPA Assay • 1. Compound is dissolved in DMSO to a convenient concentration and this is diluted in 10% DMSO to a five times concentrate of the desired starting concentration (frequently 1:100). • 2. 10 μl of 500 mM EDTA is added to alternative wells of the Opti-plate row, which will receive kinase reaction plus DMSO. This creates the negative control. • 3. For the JNK2 and JNK3 assay, compounds are prepared in six 2-fold dilutions with water and each concentration is tested in duplicate. For the JNK1 assay compounds are prepared in four 5-fold dilutions with water which are tested in triplicate. Controls are treated identically. • 4. 20 μl per well of each compound concentration is transferred to an Opti-plate, in duplicate. • 5. 30 μl (JNK2/3 SPA) or 50 μl (JNK1 SPA) of substrate solution (25 mM HEPES pH 7.5, 10 mM magnesium acetate with 3.33 μM ATP (JNK2/3) or 2 μM ATP (JNK1), approximately 7.5 kBq [γ-^33P] ATP, GST-c-Jun, in water) is added to each well. • 6. 50 μl (JNK2/3 SPA) or 30 μl (JNK1 SPA) of kinase solution (JNK in 25 mM HEPES pH 7.5, 10 mM Mg Acetate) is added to each well.
• 7. The plate is incubated for 30 minutes at room temperature. • 8. 100 μl of bead/stop solution is added to each well (5 mg/ml glutathione-PVT-SPA beads, 40 mM ATP in PBS). • 9. Plates are sealed and incubated for 30 minutes at room temperature, centrifuged for 10 minutes at 2500 g and counted. • 10. The IC50 values are calculated as the concentration of the compound being tested at which the phosphorylation of c-Jun is decreased to 50% of the control value.

Sequence of JNK3 (P53779 whole entry, species assumed): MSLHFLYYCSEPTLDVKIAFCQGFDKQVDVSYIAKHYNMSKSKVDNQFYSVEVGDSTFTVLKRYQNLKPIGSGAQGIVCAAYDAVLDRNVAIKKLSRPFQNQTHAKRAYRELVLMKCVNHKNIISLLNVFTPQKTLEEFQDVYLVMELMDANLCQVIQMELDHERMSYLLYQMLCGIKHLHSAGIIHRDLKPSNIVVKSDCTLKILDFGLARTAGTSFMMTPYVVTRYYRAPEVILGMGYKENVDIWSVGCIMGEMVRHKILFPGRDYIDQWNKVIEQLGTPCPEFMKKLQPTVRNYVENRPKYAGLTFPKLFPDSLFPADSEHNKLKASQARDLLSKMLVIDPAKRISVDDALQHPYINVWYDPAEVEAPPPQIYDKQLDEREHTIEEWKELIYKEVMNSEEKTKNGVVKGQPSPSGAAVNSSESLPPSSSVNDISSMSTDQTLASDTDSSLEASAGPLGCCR

| IC50 [nM] | SMILES |
| --- | --- |
| 79 | CC1CCCC(c2cnc3[nH]cc(-c4cnn(C)c4)c3c2)C1 (mixture of isomers) [Compound I-32, 3-(1-methyl-1H-pyrazol-4-yl)-5-(3-methylcyclohexyl)-1H-pyrrolo[2,3-b]pyridine] |
| 110 | CC1CCCCC1c1cnc2[nH]cc(-c3cnn(C)c3)c2c1 (mixture of isomers) [Compound I-33, 3-(1-methyl-1H-pyrazol-4-yl)-5-(2-methylcyclohexyl)-1H-pyrrolo[2,3-b]pyridine] |
| 91 | Cn1cc(-c2c[nH]c3ncc(C4CCC(c5ccccc5)CC4)cc23)cn1 (mixture of isomers) [Compound I-35, 3-(1-methyl-1H-pyrazol-4-yl)-5-(4-phenylcyclohexyl)-1H-pyrrolo[2,3-b]pyridine] |
| 257 | CC1CC(c2cnc3[nH]cc(-c4cnn(C)c4)c3c2)CC(C)(C)C1 (mixture of isomers) [Compound I-36, 3-(1-methyl-1H-pyrazol-4-yl)-5-(3,3,5-trimethylcyclohexyl)-1H-pyrrolo[2,3-b]pyridine] |
| 71 | CN(C)C1CCC(c2cnc3[nH]cc(-c4cnn(CCN5CCOCC5)c4)c3c2)CC1 (mixture of isomers) [Compound I-56, N,N-dimethyl-4-(3-(1-(2-morpholinoethyl)-1H-pyrazol-4-yl)-1H-pyrrolo[2,3-b]pyridin-5-yl)cyclohexanamine] |
| 74 | Cn1cc(-c2c[nH]c3ncc(C4CCC(CN5CCOCC5)CC4)cc23)cn1 (mixture of isomers) [Compound I-73, 3-(1-Methyl-1H-pyrazol-4-yl)-5-(4-morpholin-4-ylmethyl-cyclohexyl)-1H-pyrrolo[2,3-b]pyridine] |
| 251 | CCN(CCO)C1CCC(c2cnc3[nH]cc(-c4cnn(C)c4)c3c2)CC1 (mixture of isomers) [Compound I-131, 2-(ethyl(4-(3-(1-methyl-1H-pyrazol-4-yl)-1H-pyrrolo[2,3-b]pyridin-5-yl)cyclohexyl)amino)ethanol] |
| 468 | CCN(C(C)C)C1CCC(c2cnc3[nH]cc(-c4cnn(C)c4)c3c2)CC1 (mixture of isomers) [Compound I-133, N-ethyl-N-isopropyl-4-(3-(1-methyl-1H-pyrazol-4-yl)-1H-pyrrolo[2,3-b]pyridin-5-yl)cyclohexanamine] |
| 1410 | Cn1cc(-c2c[nH]c3ncc(C4=C[C@H]5O[C@@H]4CC5C(N)=O)cc23)cn1 (mixture of isomers) [Compound I-156, (1R,4R)-5-(3-(1-methyl-1H-pyrazol-4-yl)-1H-pyrrolo[2,3-b]pyridin-5-yl)-7-oxabicyclo[2.2.1]hept-5-ene-2-carboxamide] |
| 347 | CN[C@@H]1C[C@H]2C=C(c3cnc4[nH]cc(-c5cnn(C)c5)c4c3)C[C@H](C2)C1 (relative stereo) [Compound I-151, trans N-methyl-7-(3-(1-methyl-1H-pyrazol-4-yl)-1H-pyrrolo[2,3-b]pyridin-5-yl)bicyclo[3.3.1]non-6-en-3-amine] |
| 2140 | Cn1cc(-c2c[nH]c3ncc(C4CC(C)(C)CC(C)(C)C4)cc23)cn1 [Compound I-34, 3-(1-methyl-1H-pyrazol-4-yl)-5-(3,3,5,5-tetramethylcyclohexyl)-1H-pyrrolo[2,3-b]pyridine] |
| 98 | CN1CCCN([C@H]2CC[C@@H](c3cnc4[nH]cc(-c5cnn(C)c5)c4c3)CC2)CC1 [Compound I-38, 5-((1s,4s)-4-(4-methyl-1,4-diazepan-1-yl)cyclohexyl)-3-(1-methyl-1H-pyrazol-4-yl)-1H-pyrrolo[2,3-b]pyridine] |
| 103 | Cn1cc(-c2c[nH]c3ncc(C4CCC(N5CCC5)CC4)cc23)cn1 (stereo not shown) [Compound I-41, 5-(4-(azetidin-1-yl)cyclohexyl)-3-(1-methyl-1H-pyrazol-4-yl)-1H-pyrrolo[2,3-b]pyridine] |
| 138 | Cn1cc(-c2c[nH]c3ncc(C4CCC(F)(F)CC4)cc23)cn1 [Compound I-42, 5-(4,4-difluorocyclohexyl)-3-(1-methyl-1H-pyrazol-4-yl)-1H-pyrrolo[2,3-b]pyridine] |
| 166 | Cn1cc(-c2c[nH]c3ncc([C@H]4CC[C@H](N5CCCCC5)CC4)cc23)cn1 [Compound I-45, 3-(1-methyl-1H-pyrazol-4-yl)-5-((1r,4r)-4-(piperidin-1-yl)cyclohexyl)-1H-pyrrolo[2,3-b]pyridine] |

Further lines, the molecule ahead of its results:

| SMILES | IC50 [nM] |
| --- | --- |
| Cn1cc(-c2c[nH]c3ncc(C4CCC(C(C)(C)C)CC4)cc23)cn1 (mixture of isomers) [Compound I-4, 5-(4-tert-butylcyclohexyl)-3-(1-methyl-1H-pyrazol-4-yl)-1H-pyrrolo[2,3-b]pyridine] | 123 |
| CCC1CCC(c2cnc3[nH]cc(-c4cnn(C)c4)c3c2)CC1 (mixture of isomers) [Compound I-22, 5-(4-ethylcyclohexyl)-3-(1-methyl-1H-pyrazol-4-yl)-1H-pyrrolo[2,3-b]pyridine] | 25 |
| CC1CC=C(c2cnc3[nH]cc(-c4cnn(C)c4)c3c2)CC1 (stereo not shown) [Compound I-1, 3-(1-methyl-1H-pyrazol-4-yl)-5-(4-methylcyclohex-1-enyl)-1H-pyrrolo[2,3-b]pyridine] | 18 |
| Cn1cc(-c2c[nH]c3ncc(C4=CCC(C(C)(C)C)CC4)cc23)cn1 (stereo not shown) [Compound I-2, 5-(4-tert-butylcyclohex-1-enyl)-3-(1-methyl-1H-pyrazol-4-yl)-1H-pyrrolo[2,3-b]pyridine] | 199 |
| FC(F)n1cc(-c2c[nH]c3ncc(C4=CCC(N5CCOCC5)CC4)cc23)cn1 (stereo not shown) [Compound I-5, 3-(1-Difluoromethyl-1H-pyrazol-4-yl)-5-(4-morpholin-4-yl-cyclohex-1-enyl)-1H-pyrrolo[2,3-b]pyridine] | 339 |
| CCC1CC=C(c2cnc3[nH]cc(-c4cnn(C)c4)c3c2)CC1 (stereo not shown) [Compound I-8, 5-(4-ethylcyclohex-1-enyl)-3-(1-methyl-1H-pyrazol-4-yl)-1H-pyrrolo[2,3-b]pyridine] | 16 |
| CN(C)C1CCC(c2cnc3[nH]cc(-c4cnn(C)c4)c3c2)CC1 (stereo not shown) [Compound I-9, N,N-dimethyl-4-(3-(1-methyl-1H-pyrazol-4-yl)-1H-pyrrolo[2,3-b]pyridin-5-yl)cyclohexanamine] | 40 |
| Cn1cc(-c2c[nH]c3ncc(C4CCCC4)cc23)cn1 [Compound I-11, 5-cyclopentyl-3-(1-methyl-1H-pyrazol-4-yl)-1H-pyrrolo[2,3-b]pyridine] | 132 |
| Cn1cc(-c2c[nH]c3ncc(C4=CCCCC4)cc23)cn1 [Compound I-12, 5-cyclohexenyl-3-(1-methyl-1H-pyrazol-4-yl)-1H-pyrrolo[2,3-b]pyridine] | 110 |
| Cn1cc(-c2c[nH]c3ncc(C4=CCCCCC4)cc23)cn1 [Compound I-13, (E)-5-cycloheptenyl-3-(1-methyl-1H-pyrazol-4-yl)-1H-pyrrolo[2,3-b]pyridine] | 126 |
| Cn1cc(-c2c[nH]c3ncc(C4=CCC5(CC4)OCCO5)cc23)cn1 [Compound I-14, 5-(1,4-Dioxa-spiro[4.5]dec-7-en-8-yl)-3-(1-methyl-1H-pyrazol-4-yl)-1H-pyrrolo[2,3-b]pyridine] | 224 |
| Cn1cc(-c2c[nH]c3ncc(C4=CCC(C)(C)CC4)cc23)cn1 [Compound I-15, 5-(4,4-dimethylcyclohex-1-enyl)-3-(1-methyl-1H-pyrazol-4-yl)-1H-pyrrolo[2,3-b]pyridine] | 275 |
| Cn1cc(-c2c[nH]c3ncc(C4CCCCCC4)cc23)cn1 [Compound I-17, 5-cycloheptyl-3-(1-methyl-1H-pyrazol-4-yl)-1H-pyrrolo[2,3-b]pyridine] | 162 |
| Cn1cc(-c2c[nH]c3ncc(C4CCC(C)(C)CC4)cc23)cn1 [Compound I-18, 5-(4,4-dimethylcyclohexyl)-3-(1-methyl-1H-pyrazol-4-yl)-1H-pyrrolo[2,3-b]pyridine] | 288 |
| Cn1cc(-c2c[nH]c3ncc(C4CCC(=O)CC4)cc23)cn1 [Compound I-20, 4-[3-(1-Methyl-1H-pyrazol-4-yl)-1H-pyrrolo[2,3-b]pyridin-5-yl]-cyclohexanone] | 229 |
| Cn1cc(-c2c[nH]c3ncc(C4=CCC(C)(C)C=C4)cc23)cn1 [Compound I-21, 5-(4,4-dimethylcyclohexa-1,5-dienyl)-3-(1-methyl-1H-pyrazol-4-yl)-1H-pyrrolo[2,3-b]pyridine] | 49 |
| Cn1cc(-c2c[nH]c3ncc(C4=CCC(c5ccccc5)CC4)cc23)cn1 (stereo not shown) [Compound I-27, 3-(1-methyl-1H-pyrazol-4-yl)-5-(4-phenylcyclohex-1-enyl)-1H-pyrrolo[2,3-b]pyridine] | 155 |
| Cn1cc(-c2c[nH]c3ncc(C4=CC(C)(C)CC(C)(C)C4)cc23)cn1 [Compound I-28, 3-(1-methyl-1H-pyrazol-4-yl)-5-(3,3,5,5-tetramethylcyclohex-1-enyl)-1H-pyrrolo[2,3-b]pyridine] | 5500 |
| COC1=C(c2cnc3[nH]cc(-c4cnn(C)c4)c3c2)CCCC1 [Compound I-31, 5-(2-Methoxy-cyclohex-1-enyl)-3-(1-methyl-1H-pyrazol-4-yl)-1H-pyrrolo[2,3-b]pyridine] | 480 |
